From US11472778B2, “Hepatitis C virus NS3/4A protease inhibitors” (priority 2017, dated 2022)
Where two headings read alike, the source gives them in different places.

How the values were obtained:
[1] = biological target: T1, wild-type GT1a NS3/4A protease (UniProt P27958); type: biochemical, Hepatitis C virus
T1 construct: Ki WT; other: wild-type HCV NS3/4A protease
Summary of the method: (§1)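 Enzyme (GT1a wild type or D168A mutant, 2 nM) was preincubated with inhibitor dilutions for 1 h at room temperature in pH 7.5 Tris buffer with glycerol, DTT, LDAO and 4% DMSO.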

[2] = biological target: T2, GT1a D168A NS3/4A protease (UniProt P27958, D1194A, species not given); type: biochemical, Hepatitis C virus
T2 construct: rows headed: Ki (nM) D168A; Ki D168A; other: D168A variant
Summary of the method: as §1

[3] = biological target: GT1a D168A NS3/4A protease; type: biochemical, Hepatitis C virus; settings: for Ki (Fold Change) D168A: Table 6, with respect to GT1a wild-type
Summary of the method: as §1

[4] = system: wild-type HCV replicon in Huh7 cells; assay: Cell-based drug susceptibility (replicon) assay, wild-type; settings: Hepatitis C virus, read-out: Replicon EC50 (nM) WT
Summary of the method: (§2)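 Protease variants were introduced by site-directed mutagenesis into a genotype 1b Con1 luciferase replicon containing genotype 1a H77 NS3. Each replicon RNA was electroporated into Huh7 cells. Inhibitor was titrated upward. Luminescence was measured after 96 h.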

[5] = system: HCV replicon R155K variant in Huh7 cells; assay: microbe, parasite or virus in culture; type: cell-based, Hepatitis C virus; settings: for EC50: Hepatitis C virus
Summary of the method: as §2

[6] = system: HCV replicon D168A variant in Huh7 cells; assay: microbe, parasite or virus in culture; type: cell-based, Hepatitis C virus; settings: for EC50: Hepatitis C virus
Summary of the method: as §2

[7] = system: HCV replicon A156T variant in Huh7 cells; assay: microbe, parasite or virus in culture; type: cell-based, Hepatitis C virus; settings: for EC50: Hepatitis C virus
Summary of the method: as §2

[8] = system: HCV replicon D168V variant in Huh7 cells; assay: microbe, parasite or virus in culture; type: cell-based, Hepatitis C virus; settings: for EC50: Hepatitis C virus
Summary of the method: as §2

[9] = biological target: GT1a R155K NS3/4A protease (UniProt P27958, R1181K, species not given); type: biochemical, Hepatitis C virus
Summary of the method: (§3)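 2 nM NS3/4A protease (GT1a, R155K and D168A constructs) pre-incubated 1 h at room temperature with increasing inhibitor concentrations in 50 mM Tris pH 7.5, 5% glycerol, 10 mM DTT, 0.6 mM LDAO, 4% DMSO. Three independent data sets per inhibitor and construct; ΔG of binding derived from Ki as ΔG=RTlnKi.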

[10] = biological target: GT1a R155K NS3/4A protease; type: biochemical, Hepatitis C virus; settings: fold change in Ki, R155K relative to WT
Summary of the method: as §3

[11] = system: drug resistant HCV variants (R155K, A156T, D168A, D168V); assay: Replicon antiviral assays, collective statements on drug resistant variants; type: cell-based, Hepatitis C virus; settings: range over all variants tested
Experimental: Mutations (R155K, A516T, D168A and D168V) were constructed by site-directed mutagenesis using a Con1 (genotype 1b) luciferase reporter replicon containing the H77 (genotype 1a) NS3 sequence.
Replicon RNA of each protease variant was introduced into Huh7 cells by electroporation. Replication was then assessed in the presence of increasing concentrations of protease inhibitors by measuring luciferase activity (relative light units) 96 h after electroporation.
Mutations (R155K, D168A and A156T) were constructed by site-directed mutagenesis using a Con1 (genotype 1b) luciferase reporter replicon containing the H77 (genotype 1a) NS3 sequence.^6 Replicon RNA of each protease variant was introduced into Huh7 cells by electroporation. Replication was then assessed in the presence of increasing concentrations of protease inhibitors by measuring luciferase activity (relative light units) 96 h after electroporation.

[12] = biological target: T3, wild-type GT1a NS3/4A protease (UniProt P27958, C1185S, species not given); type: biochemical, Hepatitis C virus; settings: read-out: Ki (nM) GT1a WT; Table 6; P4/P4-P5 modified macrocycles
T3 construct: P4/P4-P5 modified macrocycles
Summary of the method: as §1

[13] = biological target: T4, GT1a D168A NS3/4A protease (UniProt P27958, C1185S/D1194A, species not given); type: biochemical, Hepatitis C virus; settings: read-out: Ki (nM) D168A; Table 6; P4/P4-P5 modified macrocycles
T4 construct: P4/P4-P5 modified macrocycles
Summary of the method: as §1

[14] = biological target: T5, GT1a D168A NS3/4A protease (UniProt P27958, C1185S/D1194A, species not given); type: biochemical, Hepatitis C virus; settings: read-out: Ki (nM) GT1a D168A NS3/4A Protease
T5 construct: Ki (nM) GT1a D168A NS3/4A Protease
Summary of the method: as §1

[15] = biological target: T6, wild-type GT1a NS3/4A protease (UniProt P27958, C1185S, species not given); type: biochemical, Hepatitis C virus; settings: read-out: Ki (nM) GT1a WT NS3/4A Protease
T6 construct: Ki (nM) GT1a WT NS3/4A Protease
Summary of the method: as §1

[16] = rcm bond; 15-membered ring; Zhan 1b; 1,2-DCE; 6.3 mM; 70.0 °C
GT3a NS3/4A protease = biological target: T7, GT3a NS3/4A protease (Hepatitis C virus genotype 3a, UniProt Q81495); assay: biochemical
T7 construct: drug-resistant variant D168A, and GT3a NS3/4A protease; made in house; host or cells: Escherichia coli BL21(DE3)
T7 sequence (Q81495 1033-1214): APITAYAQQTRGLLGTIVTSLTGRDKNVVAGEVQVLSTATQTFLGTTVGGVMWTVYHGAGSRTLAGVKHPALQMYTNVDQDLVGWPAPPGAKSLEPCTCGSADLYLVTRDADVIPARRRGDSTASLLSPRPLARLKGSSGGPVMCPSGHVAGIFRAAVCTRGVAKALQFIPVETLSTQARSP
Summary of the method: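 Protease at 2 nM pre-incubated 1 h at room temperature with increasing inhibitor concentrations in 50 mM Tris, 5% glycerol, 10 mM DTT, 0.6 mM LDAO, 4% DMSO. Three independent data sets per inhibitor and construct.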

[17] = Table 4, relative to WT replicon

C=C[C@@H]1C[C@]1(NC(=O)[C@@H]1C[C@@H](Oc2nc3cc(OC)ccc3nc2C)CN1C(=O)[C@@H](NC(=O)OC1CCCC1)C(C)(C)C)C(=O)NS(=O)(=O)C1(C)CC1 [Compound 12b, Cyclopentyl ((S)-1-((2S,4R)-4-((7-methoxy-3-methylquinoxalin-2-yl)oxy)-2-(((1R,2S)-1-(((1-methylcyclopropyl)sulfonyl)carbamoyl)-2-vinylcyclopropyl)carbamoyl)pyrrolidin-1-yl)-3,3-dimethyl-1-oxobutan-2-yl)carbamate]
Ki ([1]; read-out: Ki (nM) WT, Table 8, linear inhibitors): 7.1 ± 1.1 nM
Ki ([1]; read-out: Ki WT, wild-type HCV NS3/4A protease): 7.1 ± 1.1 nM
Ki ([2]; read-out: Ki (nM) D168A, Table 8, linear inhibitors): 140 ± 13 nM
Ki ([2]; read-out: Ki D168A, D168A variant): 140 ± 13 nM
Ki D168A (fold change) ([3]; fold change in Ki, D168A relative to WT): 20
EC50 ([4]; Huh-7, Table 9): 4.5 nM
EC50 ([5]; Huh-7, read-out: Replicon EC50 (nM) R155K, Table 9): 28 nM
Replicon EC50 (Fold change) R155K ([5]; Table 9, relative to WT): (6.2) fold
EC50 ([6]; Huh-7, read-out: Replicon EC50 (nM) D168A, Table 9): 45 nM
Replicon EC50 (Fold change) D168A ([6]; Table 9, relative to WT): (10) fold
EC50 ([7]; Huh-7, read-out: Replicon EC50 (nM) A156T, Table 9): 87 nM
Replicon EC50 (Fold change) A156T ([7]; Table 9, relative to WT): (19) fold
EC50 ([8]; Huh-7, read-out: Replicon EC50 (nM) D168V, Table 9): 59 nM
Replicon EC50 (Fold change) D168V ([8]; Table 9, relative to WT): (13) fold
Ki ([9]; read-out: Ki (nM) R155K, Table 8, linear inhibitors): 10 ± 1.3 nM
Ki ([9]; read-out: Ki R155K, R155K variant): 10 ± 1.3 nM
Ki R155K (fold change) [10]: 1.4
fold loss in replicon potency against drug resistant variants compared to WT [11]: 5-20 fold

COc1ccc2nc(C)c(O[C@@H]3C[C@H]4C(=O)N[C@]5(C(=O)NS(=O)(=O)C6(C)CC6)C[C@H]5/C=C\CCCCC[C@H](NC(=O)OC(C)(C)C)C(=O)N4C3)nc2c1 [Compound 19b, tert-Butyl ((2R,6S,13aS,14aR,16aS,Z)-2-((7-methoxy-3-methylquinoxalin-2-yl)oxy)-14a-(((1-methylcyclopropyl)sulfonyl)carbamoyl)-5,16-dioxo-1,2,3,5,6,7,8,9,10,11,13a,14,14a,15,16,16a-hexadecahydrocyclopropa[e]pyrrolo[1,2-a][1,4]diazacyclopentadecin-6-yl)carbamate]
Ki [12]: 3.6 nM
Ki [13]: 52 nM
Ki (Fold change) GT1a D168A NS3/4A Protease ([3]; Table 3, Ki D168A relative to GT1a WT): (14) fold
Ki (Fold Change) D168A [3]: (14) fold
Ki ([14]; Table 1): 52 nM
Ki ([14]; Table 3): 52 ± 2.4 nM
Ki ([15]; Table 1): 3.6 nM
Ki ([15]; Table 3): 3.6 nM
EC50 ([4]; Huh-7, 96 h, Table 2, Huh7 cells, luciferase 96 h): 0.3 nM
EC50 ([4]; Huh-7, Table 4): 0.3 nM
ring closure, isolated yield [16]: 70%
Ki (GT3a NS3/4A protease): 119 nM
Ki (Fold change) GT3a NS3/4A Protease (GT3a NS3/4A protease; Table 3, Ki GT3a relative to GT1a WT): (33) fold
Ki (GT3a NS3/4A protease; read-out: Ki (nM) GT3a NS3/4A Protease, Table 3): 119 ± 18 nM
EC50 ([5]; Huh-7, 96 h, read-out: Replicon EC50 (nM) R155K, Table 2, Huh7 cells, luciferase 96 h): 0.8 nM
EC50 ([5]; Huh-7, read-out: Replicon EC50 (nM) R155K, Table 4): 0.8 nM
Replicon EC50 (Fold change) R155K [5, 17]: (3) fold
EC50 ([6]; Huh-7, 96 h, read-out: Replicon EC50 (nM) D168A, Table 2, Huh7 cells, luciferase 96 h): 2.37 nM
EC50 ([6]; Huh-7, read-out: Replicon EC50 (nM) D168A, Table 4): 2.37 nM
Replicon EC50 (Fold change) D168A [6, 17]: (8) fold
EC50 ([7]; Huh-7, 96 h, read-out: Replicon EC50 (nM) A156T, Table 2, Huh7 cells, luciferase 96 h): 1.57 nM
EC50 ([7]; Huh-7, read-out: Replicon EC50 (nM) A156T, Table 4): 1.57 nM
Replicon EC50 (Fold change) A156T [7, 17]: (5) fold
EC50 ([8]; Huh-7, 96 h, read-out: Replicon EC50 (nM) D168V, Table 2, Huh7 cells, luciferase 96 h): 1.6 nM
EC50 ([8]; Huh-7, read-out: Replicon EC50 (nM) D168V, Table 4): 1.6 nM
Replicon EC50 (Fold change) D168V [8, 17]: (5) fold

CC[C@H](C)[C@H](NC(C)=O)C(=O)N[C@H]1CCCCC/C=C\[C@@H]2C[C@@]2(C(=O)NS(=O)(=O)C2(C)CC2)NC(=O)[C@@H]2C[C@@H](Oc3nc4cc(OC)ccc4nc3C)CN2C1=O [Compound P4-P5-6, (2R,6S,13aS,14aR,16aS,Z)-6-((2S,3S)-2-acetamido-3-methylpentanamido)-2-((7-methoxy-3-methylquinoxalin-2-yl)oxy)-N-((1-methylcyclopropyl)sulfonyl)-5,16-dioxo-1,2,3,6,7,8,9,10,11,13a,14,15,16,16a-tetradecahydrocyclopropa[e]pyrrolo[1,2-a][1,4]diazacyclopentadecine-14a(5H)-carboxamide]
Ki [12]: 7.1 ± 0.24 nM
Ki [13]: 81 ± 11 nM
Ki (Fold Change) D168A [3]: (11) fold
